We go through 2 compounds from patent publication US6492365B1, “Microsomal triglyceride transfer protein” (Bristol-Myers Squibb Company, priority 1992, dated 2002).

Format in all cases: cell-based, human
Experiment [1] concerns apoB secretion from HepG2 cells. Nature of the experiment: ApoB secretion from HepG2 cells (ELISA of culture media). As to the method: (§1) HepG2 cells were treated with compound A at the indicated doses for 16 hours. The concentration in the cell culture media of apoB, apoAI and HSA after the incubation period was measured with the appropriate ELISA assay and normalized to total cell protein. The data shown are expressed as a percentage of the control (DMSO only).
HepG2 cells were treated with compound B at the indicated doses for 16 hours. The concentration in the cell culture media of apoB, apoAI and HSA after the incubation period was measured with the appropriate ELISA assay and normalized to total cell protein. The data shown are expressed as a percentage of the control (DMSO only).
The human hepatoblastoma cell line, HepG2, was obtained from the American Type Culture Collection (Rockville, Md.; ATCC accession no. 8065). […]
Experiments to measure the effects of compounds A and B on protein secretion were carried out in 48-well plates. […] Before commencement of drug treatment, culture medium was removed, the cells washed once with PBS and 1 mL of fresh medium was added quantitatively. […] The cells were homogenized by trituration with a 1 mL micropipettor, and protein was measured using the Coomassie reagent (Pierce Chemical Co, Rockford, Ill.) as described by the manufacturer. […]

Experiment [2] concerns apoAI secretion from HepG2 cells. Nature of the experiment: ApoAI secretion from HepG2 cells (ELISA of culture media). To be noted: 16-hour incubation, up to the maximum dose of 20 μM. On the procedure:
as §1
(§2) The human hepatoblastoma cell line, HepG2, was obtained from the American Type Culture Collection (Rockville, Md.; ATCC accession no. 8065). Cultures were maintained at 37° C. in a 5% carbon dioxide atmosphere in T-75 culture flasks with 12 mL of RPMI 1640 medium containing 10% fetal bovine serum (all cell culture media and buffers were obtained from GIBCO Life Technologies, Gaithersburg, Md.). Cells were subcultured 1:4 once a week and fed fresh medium 3 times a week.
(§3) Experiments to measure the effects of compounds A and B on protein secretion were carried out in 48-well plates. HepG2 cells were subcultured 1:2 and allowed to come to confluency at least 24 hours before drug treatment. Before commencement of drug treatment, culture medium was removed, the cells washed once with PBS and 1 mL of fresh medium was added quantitatively. […] The cells were homogenized by trituration with a 1 mL micropipettor, and protein was measured using the Coomassie reagent (Pierce Chemical Co, Rockford, Ill.) as described by the manufacturer. […]
(ELISA stands for enzyme-linked immunosorbent assay.)

The test system of experiment [3] is HSA secretion from HepG2 cells. Nature of the experiment: HSA secretion from HepG2 cells (ELISA of culture media). To be noted: 16-hour incubation, up to the maximum dose of 20 μM. On the procedure: as §1, §2, §3

Where a name gives a salt, the structure may show the parent alone.

As for `COc1ccccc1N1CCN(CC2CC(=O)c3ccc(F)cc3C2)CC1` (stereo not shown) [compound B, 1-[3-(6-fluoro-1-tetralanyl)methyl]-4-O-methoxyphenyl piperazine], the “secretion of lipoproteins that contain apoB” value in experiment [1] (result in words) is recorded as “inhibited”.

One may read the IC50 as the concentration that inhibits the measured activity by half. On to `O=C1c2ccccc2CN1C1CCN(CCC(c2ccccc2)c2ccccc2)CC1` [compound A, 2-[1-(3,3-diphenylpropyl)-4-piperdinyl]-2,3-dihydro-3-oxo-1H-isoindole hydrochloride], for which the half-maximal inhibitory concentration (IC50) in experiment [1] (Homo sapiens, 16-hour incubation, 0.156 to 20 μM, read-out: IC50 for inhibition of apoB secretion) worked out at 5 µM. Also, the “secretion of apoAI” value in experiment [2] is “unaffected”. Also, the “secretion of HSA” value in experiment [3] was “unaffected”.
